Calls of active or inactive are those of the source. The calls are words filed in the database; no cut-off is given here.
Assays:
[1] = molecular target: T1, 2-C-methyl-D-erythritol 2,4-cyclodiphosphate synthase (Salmonella typhimurium (strain LT2 / SGSC1412 / ATCC 700720), UniProt Q8ZMF7); test: Inhibition of Salmonella typhimurium IspF by malachite green dye based assay; set-up: species or system Salmonella enterica subsp. enterica serovar Typhimurium
T1 sequence (Q8ZMF7 whole entry): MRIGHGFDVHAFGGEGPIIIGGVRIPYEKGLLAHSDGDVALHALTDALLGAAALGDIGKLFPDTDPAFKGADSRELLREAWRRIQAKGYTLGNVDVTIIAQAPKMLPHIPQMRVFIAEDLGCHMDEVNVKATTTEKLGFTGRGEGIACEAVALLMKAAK

[2] = tested on: Corynebacterium pseudodiphtheriticum; test: Antibacterial activity against Corynebacterium pseudodiphtheriticum at 0.5 mM by Kirby Bauer disk diffusion method; type: functional; settings: read-out: DIZ
[3] = tested on: Burkholderia thailandensis; test: Antibacterial activity against Burkholderia thailandensis at 0.5 mM by Kirby Bauer disk diffusion method; type: functional; settings: read-out: DIZ
Klebsiella pneumoniae = test: Antibacterial activity against Klebsiella pneumoniae at 0.5 mM by Kirby Bauer disk diffusion method; type: functional; settings: read-out: DIZ
Micrococcus luteus = test: Antibacterial activity against Micrococcus luteus at 0.5 mM by Kirby Bauer disk diffusion method; type: functional; settings: read-out: DIZ
[4] = molecular target: T2, 2-C-methyl-D-erythritol 2,4-cyclodiphosphate synthase (Burkholderia pseudomallei (strain K96243)) (UniProt Q63T71); test: Binding affinity to Burkholderia pseudomallei IspF by surface plasmon resonance analysis
T2 sequence (whole entry): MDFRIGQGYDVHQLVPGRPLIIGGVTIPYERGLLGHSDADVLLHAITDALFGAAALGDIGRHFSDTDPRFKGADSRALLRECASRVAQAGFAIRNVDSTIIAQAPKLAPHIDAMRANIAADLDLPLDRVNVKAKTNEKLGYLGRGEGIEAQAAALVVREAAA

Bacillus cereus = test: Antibacterial activity against Bacillus cereus at 0.5 mM by Kirby Bauer disk diffusion method; type: functional; settings: read-out: DIZ
[5] = tested on: Mycolicibacterium smegmatis; test: Antibacterial activity against Mycobacterium smegmatis at 0.5 mM by Kirby Bauer disk diffusion method; type: functional; settings: read-out: DIZ
Corynebacterium xerosis = test: Antibacterial activity against Corynebacterium xerosis at 0.5 mM by Kirby Bauer disk diffusion method; type: functional; settings: read-out: DIZ
Escherichia coli = test: Antibacterial activity against Escherichia coli at 0.5 mM by Kirby Bauer disk diffusion method; type: functional; settings: read-out: DIZ
Pseudomonas aeruginosa = test: Antibacterial activity against Pseudomonas aeruginosa at 0.5 mM by Kirby Bauer disk diffusion method; type: functional; settings: read-out: DIZ

Structure (SMILES) | IC50 [1] | zone of inhibition at 500 µM [2] | zone of inhibition at 500 µM [3] | zone of inhibition at 500 µM (Klebsiella pneumoniae) | zone of inhibition at 500 µM (Micrococcus luteus) | Activity [4] | zone of inhibition at 500 µM (Bacillus cereus) | zone of inhibition at 500 µM [5] | zone of inhibition at 500 µM (Corynebacterium xerosis) | zone of inhibition at 500 µM (Escherichia coli) | zone of inhibition at 500 µM (Pseudomonas aeruginosa)
CCOC(=O)C1=C(C)N=c2s/c(=C\c3cc(Br)c(O)c(Br)c3)c(=O)n2C1c1cccs1 (stereo not drawn) | 37 µM | – | – | – | – | – | – | – | – | – | –
O=C(O)c1cnc(Nc2ccc(-c3ccncc3)cc2)nc1O | 23.5 µM | 0 mm | 0 mm | 0 mm | 0 mm | Active | 10 mm | 0 mm | 0 mm | 0 mm | 0 mm
O=C(O)c1cnc(NCc2ccc(Cl)cc2)nc1O | – | 0 mm | 11 mm | 9 mm | 0 mm | – | 14 mm | 15 mm | 0 mm | 14 mm | 15 mm
O=C(O)c1cnc(Nc2ccc(Br)cc2)nc1O | – | 16 mm | 13 mm | 12 mm | 0 mm | – | 12 mm | 17 mm | 16 mm | 15 mm | 0 mm
O=C(O)c1cnc(Nc2ccc(N3CCCCC3)cc2)nc1O | – | 0 mm | 11 mm | 10 mm | 0 mm | – | 12 mm | 0 mm | 0 mm | 11 mm | 0 mm
O=C(O)c1cnc(Nc2ccc3[nH]ncc3c2)nc1O | – | 0 mm | 10 mm | 0 mm | 0 mm | – | 7 mm | 14 mm | 0 mm | 0 mm | 0 mm
O=C(O)c1cnc(NCc2cc(Cl)ccc2Cl)nc1O | – | 10 mm | 10 mm | 8 mm | 0 mm | – | 10 mm | 15 mm | 0 mm | 11 mm | 9 mm
CCOC(=O)c1cnc(NCc2cccc(Cl)c2)nc1O | – | 0 mm | 11 mm | 0 mm | 0 mm | – | 0 mm | 14 mm | 0 mm | 0 mm | 0 mm
CCOC(=O)c1cnc(Nc2ccc(N3CCOCC3)cc2)nc1O | – | 0 mm | 9 mm | 8 mm | 0 mm | – | 6 mm | 14 mm | 0 mm | 0 mm | 11 mm
Nc1ccc(C(=O)O)c(O)c1 [AMINOSALICYLIC ACID] | – | 0 mm | 12 mm | 0 mm | 0 mm | – | 9 mm | 14 mm | 0 mm | 11 mm | 0 mm
O=C(O)c1cnc(Nc2ccc(-c3ccccc3)cc2)nc1O | – | 0 mm | 0 mm | 15 mm | 0 mm | – | 12 mm | 15 mm | 0 mm | 0 mm | 0 mm

— ChEMBL document CHEMBL4304805, “Antibacterial activity of 2-amino-4-hydroxypyrimidine-5-carboxylates and binding to Burkholderia pseudomallei 2-C-methyl-d-erythritol-2,4-cyclodiphosphate synthase” (Bioorg Med Chem Lett, 2019)
